Reference: patent US7297691B2, “Treatment of sleep disorders with cholinesterase inhibitors” (priority 2003, dated 2007)
Counter-ions that a name gives are not always drawn.

Tests used:
[1] = tested on: cholinesterase in hemolyzed whole blood (hemolysate); experiment: SIGMA DIAGNOSTICS CHOLINESTERASE (PTC) kit, hemolysate ChE activity in blood samples; assay type: biochemical, human; conditions: for Hemolysate ChE activity: blood samples from 3 patients, no Nivalin = 1.00
Description: (§1) SIGMA DIAGNOSTICS® CHOLINESTERASE (PTC) kit, available from Sigma Diagnostics, can be used for determining the activity and selectivity of cholinesterase inhibitors.
(§2) Reactions involved in the cholinesterase assay are as follows:
(§3) [drawing 4] 5-thio-2-nitrobenzoic acid is assessed by measuring the absorbance at 405 nm. The rate of change in absorbance at 405 nm is directly proportional to cholinesterase activity.
(§4) The activity of erythrocyte cholinesterase may be calculated on the basis of the measurement of butyrylcholinesterase (pseudocholinesterase) in serum and cholinesterase in hemolyzed whole blood (hemolysate), both measured simultaneously by the method described above, and evaluated according to the hematocrit value according to the formula HchE=(EchE×Hct*)+(PchE×(1−Hct*)) Therefore, EchE=(HchE−(PchE×(1−Hct*))/Hct*. • Hematocrit value expressed as decimal equivalent (i.e. 25%=0.25) In the above formulae, EChE is erythrocyte cholinesterase activity, PChE is plasma cholinesterase activity, HChE is hemolysate cholinesterase activity, and Hct is hematocrit value of the sample.
(§5) Another way of assessing the cholinesterase activity is to measure the plasma cholinesterase and the cholinesterase in purified hemolyzed erythrocytes. By doing this, the values are obtained directly.
(§6) Blood samples from 3 patients are tested with the Sigma test.

[2] = molecular target: T1, butyrylcholinesterase (pseudocholinesterase) in serum (Homo sapiens, UniProt P06276); experiment: SIGMA DIAGNOSTICS CHOLINESTERASE (PTC) kit, serum ChE activity in blood samples; assay type: biochemical; conditions: for Serum ChE activity: blood samples from 3 patients, no Nivalin = 1.00
T1 construct: butyrylcholinesterase (pseudocholinesterase) in serum; from tissue; host or cells: serum of patients
T1 sequence (P06276 29-602): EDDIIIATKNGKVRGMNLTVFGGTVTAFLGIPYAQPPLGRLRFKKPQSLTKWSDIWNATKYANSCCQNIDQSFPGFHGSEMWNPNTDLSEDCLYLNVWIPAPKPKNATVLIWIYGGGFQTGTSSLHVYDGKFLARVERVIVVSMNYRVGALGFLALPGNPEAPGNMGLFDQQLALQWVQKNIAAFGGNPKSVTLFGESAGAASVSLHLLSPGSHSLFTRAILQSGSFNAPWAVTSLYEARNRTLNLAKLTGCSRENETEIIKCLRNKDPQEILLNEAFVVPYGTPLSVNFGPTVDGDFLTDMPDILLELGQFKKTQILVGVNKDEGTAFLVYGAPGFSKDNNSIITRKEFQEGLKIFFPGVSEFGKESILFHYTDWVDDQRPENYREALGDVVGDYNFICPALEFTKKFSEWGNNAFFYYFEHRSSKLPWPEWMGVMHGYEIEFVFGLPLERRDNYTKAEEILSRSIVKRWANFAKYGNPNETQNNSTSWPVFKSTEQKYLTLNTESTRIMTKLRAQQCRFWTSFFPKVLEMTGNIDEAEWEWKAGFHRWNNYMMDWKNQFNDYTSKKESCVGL
Description: as §1, §2, §3, §4, §5, §6

[3] = in humans; cited from earlier work
[4] = in vivo; cited from earlier work
[5] = cited from earlier work
[6] = side effects in patients treated; assay type: in vivo, human
[7] = cited from earlier work; remark: listed apart in the source
[8] = 1.25 μg/ml Nivalin added in vitro
[9] = 2.50 μg/ml Nivalin added in vitro
[10] = 1.25 and 2.5 μg/ml added in vitro

Row | Compound | Hemolysate ChE activity [1, 8] | Hemolysate ChE activity [1, 9] | change of hemolysate cholinesterase activity with increased concentration [1, 10] | Serum ChE activity [2, 8] | Serum ChE activity [2, 9] | change of serum activity as a response to the addition [2, 10] | passing the blood-brain barrier [3] | elimination half life [4] | lipid solubility [5] | more severe side effects, share of patients [6] | vomiting and dizziness, share of patients ([6]; disappearing after about one week in most cases) | slight nausea, share of cases ([6]; disappearing after about one week of treatment) | complete elimination of metabolites and galantamine [4] | solubility in water ([5]; at room temperature) | toxicity ([7]; in therapeutic concentrations) | severe side effects ([7]; in therapeutically effective dosages) | reported cases of liver toxicity or serious side effects ([7]; use as anticurare agent in anesthesiology since around 1958)
1 | COc1ccc2c3c1O[C@H]1C[C@@H](O)C=C[C@@]31CCN(C)C2 [Nivalin, Galantamine hydrobromide] | 0.96 | 0.86 | significant reduction | 0.98 | 0.97 | do not show any statistically significant change | transverses the blood brain barrier easily | over four hours | lipid soluble | – | – | – | – | – | – | – | –
2 | [4aS-(4aα,6β,8aR*)]-4a,5,9,10 11,12-hexahydro-3-methoxy-11-methyl-6H-benzofuro[3a,3,2-ef][2]benzazepin-6-ol [Galantamine] | – | – | – | – | – | – | – | – | – | 4-6% | 5-10% | about 30% | 72 h | only sparingly soluble | relatively low toxicity | no severe side effects | without any reported case
